Results from patent publication US20210315839A1, “USE OF SPERMIDINE FOR THE ENHANCEMENT OF MITOCHONDRIAL RESPIRATION” (TLL THE LONGEVITY LABS GMBH, priority 2016, published 2021).

System: mitochondrial Complex I
Experiment: High resolution respirometry of cardiac mitochondria isolated from spermidine supplemented aged mice (Complex I activity)
Format: in vivo, C57BL/6 mice
Conditions: for activity of mitochondrial Complex I (respiratory competence of cardiac mitochondria through respiratory chain complex I, OXPHOS stage): isolated cardiac mitochondria of 24 month old mice after 6 months of spermidine supplementation (24M+S) vs aged control (24M), complex I supplying substrates, 37° C., N-5/5
Protocol: Mitochondria isolated from cardyomyocytes of spermidine or sham treated 24 month old and 4 month old (young reference) C57B/63 wildtype mice were used for measurement of mitochondrial respiratory activity.
Wild type C57BL/6 mice were purchased from Janvier Labs, France (C57BL6/J:Rj males). Supplementation of spermidine was conducted late in life (starting at age of 18 months). After 6 months of treatment, isolation of cardiac mitochondria and high resolution respirometry was performed, using an isolation buffer containing 0.2% BSA and 5 mg/ml bacterial protease (Sigma-Aldrich, P8038). Hearts were quickly excised immediately after final blood collection under isoflurane anaesthesia and processed.
Optical density at 600 nm (0D600) of the final mitochondrial suspension (isolation buffer including BSA, but excluding protease) was determined by serial dilutions in a TECAN GeniusPro plate reader and served as an estimate of mitochondrial mass used for normalization. Oxygen consumption was assayed at 37° C. with an Oxygraph 2 k high resolution respirometer (Oroboros Instruments, Austria) according to the manufacturer's recommendations. OD600 equivalents of isolated myocardial mitochondria corresponding to 10-20 ug mitochondrial protein were diluted in 2 ml equilibrated measurement medium (100 mM sucrose, 20 mM K+−TES (pH=7.2), 50 mM KCl, 2 mM MgCl2, 1 mM EDTA, 4 mM KH2PO4, 3 mM malate and 0.1% (v/v) BSA) within a closed and calibrated system with constant stirring. […]
In FIG. 1A representative oxygraph recordings and (B) quantification of mitochondrial respiration (only OXPHOS stage shown) from isolated cardiac mitochondria incubated with complex I supplying substrates […] and pyruvate (Gly/Pyr) are shown. ROX, Residual respiration (State 1) in the absence of reduced substrate and ADP; LEAK, Respiration compensating for proton leak in the absence of ADP but presence of reduced substrate; OXPHOS, ADP stimulated respiration of coupled mitochondria (quantification shown in FIG. 1B); OXPHOS+CytC, Oxphos after addition of cytochrome C. […]

NCCCCNCCCN [Spermidine, N-(3-Aminopropyl)-1,4-diaminobutane]
age-induced decline in mitochondrial respiratory function (aged spermidine supplemented mice vs aged control and young reference mice, cardiac mitochondria): reversed | activity of mitochondrial Complex I (respiratory competence of cardiac mitochondria through respiratory chain complex I, OXPHOS stage): increases the activity of mitochondrial Complex I | activity of mitochondrial Complex I (respiratory competence of cardiac mitochondria through respiratory chain complex I, OXPHOS stage) (listed as spermidine): increased
